Our source for the Kd values is patent US12415834B2, “GhR-binding peptide and composition comprising same” (priority 2021, dated 2025).

The Kd is the equilibrium constant for the complex coming apart.

Starred links: 1 amine or outer side, 2 acyl side, 3 side chain; linkers in the order of their positions; H or OH if unused. Positions of bridges follow the written chain, without caps; N, C: chain ends. Non-standard residues stand in square brackets, D forms with d. Residues, ends and D or L forms follow the SMILES beside them. Groups on a side chain read outwards from the residue. *: point of attachment. X12 = NC(=O)[C@H](CCCCN*)NC(=O)CC[C@H](NC(=O)CC[C@H](NC(=O)CCCc1ccc(-c2ccccc2)cc1)C(=O)O)C(=O)O; X3 = NC(=O)[C@H](CCCCN*)NC(=O)CC[C@H](NC(=O)CC[C@H](NC(=O)CCCCCCCCCCCCCCC(=O)O)C(=O)O)C(=O)O; X10 = NC(=O)[C@H](CCCCN*)NC(=O)CC[C@H](NC(=O)CC[C@H](NC(=O)CCCc1ccc(I)cc1)C(=O)O)C(=O)O; X18 = NC(=O)[C@H](CCCCN*)NC(=O)CC[C@H](NC(=O)CC[C@H](NC(=O)CCCc1ccccc1)C(=O)O)C(=O)O; Trp(1-CH2CO) = O=C([C@H](Cc1cn(CC(=O)[*:3])c2ccccc12)N[*:1])[*:2]; Trp(5-OMe) = COc1ccc2[nH]cc(C[C@H](N)C(=O)O)c2c1; Butanoyl(4-(4-I-phenyl)) = O=C(CCCc1ccc(I)cc1)*; Trp(5-OH) = N[C@@H](Cc1c[nH]c2ccc(O)cc12)C(=O)O; Phe(4-COOH) = N[C@@H](Cc1ccc(C(=O)O)cc1)C(=O)O; X7 = O=C(O)CN1CCC(N[*:1])(C(=O)[*:2])CC1; γGlu = O=C(O)[C@H](CCC(=O)[*:2])N[*:1]; X9 = O=C(CCCc1ccc(-c2ccccc2)cc1)*; NMeK = CN[C@@H](CCCCN)C(=O)O; Aib = CC(C)(N)C(=O)O

The target in one experiment is T1, Recombinant human GhR-Fc protein (Homo sapiens, UniProt P10912).
T1 construct: purchased R&D Systems
T1 sequence (P10912 with tags, fused parts or gaps limits assumed): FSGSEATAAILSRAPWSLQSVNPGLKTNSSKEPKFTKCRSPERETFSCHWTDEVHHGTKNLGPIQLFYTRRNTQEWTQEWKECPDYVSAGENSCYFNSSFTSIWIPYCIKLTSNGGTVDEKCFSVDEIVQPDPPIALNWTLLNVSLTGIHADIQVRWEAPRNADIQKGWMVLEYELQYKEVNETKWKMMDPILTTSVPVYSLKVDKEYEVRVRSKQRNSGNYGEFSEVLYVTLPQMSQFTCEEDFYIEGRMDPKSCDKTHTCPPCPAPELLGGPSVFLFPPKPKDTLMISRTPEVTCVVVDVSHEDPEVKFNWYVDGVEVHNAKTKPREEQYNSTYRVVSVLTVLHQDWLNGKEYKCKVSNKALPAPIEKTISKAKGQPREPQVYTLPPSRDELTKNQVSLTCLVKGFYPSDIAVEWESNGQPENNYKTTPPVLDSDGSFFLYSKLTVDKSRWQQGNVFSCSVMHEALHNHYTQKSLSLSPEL
Briefly: SPR binding assay (Biacore T200, single-cycle kinetics) of peptides against immobilized human GhR-Fc.
Conditions: not given
As for the experimental part: SPR assay was performed using Biacore T200 (cytiva: Former GE Healthcare). After the equilibration of Series S Sensor Chip CM5 (produced by cytiva: Former GE Healthcare) with Running Buffer (HBS-EP with 1% (v/v) DMSO), an EDC/NHS mixture was injected at a flow rate of 10 μL/min for 7 minutes to thereby activate the functional groups on sensor chip. Recombinant human GhR-Fc protein (R&D Systems) in 10 mM Acetate (pH 4.0) was injected immobilized to at a flow rate of 5 μL/min. It took 7 minutes to immobilize the GhR on the substrate surfaces of the sensor chip. Then Ethanolamine was injected at a flow rate of 10 μL/min for 7 minutes. 1M Ethanolamine (aq.) was injected at a flow rate of 10 μL/min for 420 seconds for capping.
Using these Peptide Samples, kinetics of peptides against human GhR-Fc protein were measured. The method adopted for sample measurement was a single-cycle kinetics method. The analysis was conducted using the evaluation software provided with Biacore T200. A DMSO correction curve obtained by solvent correction measurements was applied for the analysis. Kinetics fitting was done on the difference data obtained by subtracting the baseline data from sample measurement data. KD values were calculated based on the association rate constant (ka) and dissociation rate constant (kd). […]
(In SPR one partner is held on a chip, and binding of the other changes the refractive index at the surface.)
Turning to `CC(C)[C@@H]1NC(=O)[C@H](C(C)C)NC(=O)[C@@H]2CCCCNC(=O)Cn3cc(c4ccccc43)C[C@H](NC(=O)[C@H](CC(N)=O)NC(=O)[C@H](CO)NC1=O)C(=O)N[C@@H](Cc1ccc(C(=O)O)cc1)C(=O)N[C@@H](CCCCN)C(=O)N[C@@H](Cc1c[nH]c3ccc(O)cc13)C(=O)NC(C)(C)C(=O)N[C@@H](C(C)C)C(=O)N[C@H](C(=O)NCCCC[C@H](NC(=O)CC[C@H](NC(=O)CC[C@H](NC(=O)CCCc1ccc(-c3ccccc3)cc1)C(=O)O)C(=O)O)C(N)=O)CSCC(=O)N[C@@H](Cc1ccc(C(=O)O)cc1)C(=O)N2C` [Compound 15] ({CH2CO}-[Phe(4-COOH)][NMeK]VVSN[Trp(1-CH2CO)][Phe(4-COOH)]K[Trp(5-OH)][Aib]VC-X12; lactam 2-7; thioether N-13), the Kd came out at 1.61 nM.

`COc1ccc2[nH]cc(C[C@@H]3NC(=O)[C@H](CC(N)=O)NC(=O)[C@H](CO)NC(=O)[C@H](C(C)C)NC(=O)[C@H](C(C)C)NC(=O)[C@H](CCCCNC(=O)CC[C@H](NC(=O)CCCc4ccc(-c5ccccc5)cc4)C(=O)O)N(C)C(=O)[C@H](Cc4ccc(O)cc4)NC(=O)CSC[C@@H](C(=O)NCC(=O)N4CCC[C@H]4C(=O)N[C@H](CO)C(=O)N[C@H](CO)C(=O)N[C@H](CO)C(N)=O)NC(=O)[C@H](C(C)C)NC(=O)C(C)(C)NC(=O)[C@H](Cc4c[nH]c5ccc(O)cc45)NC(=O)[C@H](CCCCN)NC(=O)[C@H](Cc4ccc(C(=O)O)cc4)NC3=O)c2c1` [Compound 56] ({CH2CO}-Y[NMeK]([γGlu-X9])VVSN[Trp(5-OMe)][Phe(4-COOH)]K[Trp(5-OH)][Aib]VCGP[dS][dS][dS]-NH2; thioether N-13): the Kd was 2.87 nM.

The experiment is the same for the next values; noted with them: SPR, hGhR; Table 1 bicyclic peptides; KD calculated from ka and kd; read-out: KD.
As for `CC(C)[C@@H]1NC(=O)[C@H](C(C)C)NC(=O)[C@@H]2CCCCNC(=O)Cn3cc(c4ccccc43)C[C@H](NC(=O)[C@H](CC(N)=O)NC(=O)[C@H](CO)NC1=O)C(=O)N[C@@H](Cc1ccc(O)cc1)C(=O)N[C@@H](CCCCN)C(=O)N[C@@H](Cc1c[nH]c3ccc(O)cc13)C(=O)NC1(CCN(CC(=O)O)CC1)C(=O)N[C@@H](C(C)C)C(=O)N[C@H](C(=O)NCCCC[C@H](NC(=O)CC[C@H](NC(=O)CC[C@H](NC(=O)CCCCCCCCCCCCCCC(=O)O)C(=O)O)C(=O)O)C(N)=O)CSCC(=O)N[C@@H](Cc1ccc(O)cc1)C(=O)N2C` [Compound 29] ({CH2CO}-Y[NMeK]VVSN[Trp(1-CH2CO)]YK[Trp(5-OH)][X7]VC-X3; lactam 2-7; thioether N-13), the Kd is 1.57 nM.

Turning to `CC(C)[C@@H]1NC(=O)[C@H](C(C)C)NC(=O)[C@@H]2CCCCNC(=O)Cn3cc(c4ccccc43)C[C@H](NC(=O)[C@H](CC(N)=O)NC(=O)[C@H](CO)NC1=O)C(=O)N[C@@H](Cc1ccc(O)cc1)C(=O)N[C@@H](CCCCN)C(=O)N[C@@H](Cc1c[nH]c3ccc(O)cc13)C(=O)NC(C)(C)C(=O)N[C@@H](C(C)C)C(=O)N[C@H](C(=O)NCCCC[C@H](NC(=O)CC[C@H](NC(=O)CC[C@H](NC(=O)CCCc1ccc(I)cc1)C(=O)O)C(=O)O)C(N)=O)CSCC(=O)N[C@@H](Cc1ccc(O)cc1)C(=O)N2C` [Compound 32] ({CH2CO}-Y[NMeK]VVSN[Trp(1-CH2CO)]YK[Trp(5-OH)][Aib]VC-X10; lactam 2-7; thioether N-13), the Kd was 0.98 nM. Same read-out and setting: the value for `CC(C)[C@@H]1NC(=O)[C@H](C(C)C)NC(=O)[C@@H]2CCCCNC(=O)Cn3cc(c4ccccc43)C[C@H](NC(=O)[C@H](CC(N)=O)NC(=O)[C@H](CO)NC1=O)C(=O)N[C@@H](Cc1ccc(O)cc1)C(=O)N[C@@H](CCCCN)C(=O)N[C@@H](Cc1c[nH]c3ccc(O)cc13)C(=O)NC(C)(C)C(=O)N[C@@H](C(C)C)C(=O)N[C@H](C(=O)NCCCC[C@H](NC(=O)CC[C@H](NC(=O)CC[C@H](NC(=O)CCCc1ccc(I)cc1)C(=O)O)C(=O)O)C(N)=O)CSCC(=O)N[C@@H](Cc1ccc(C(=O)O)cc1)C(=O)N2C` [Compound 21] ({CH2CO}-[Phe(4-COOH)][NMeK]VVSN[Trp(1-CH2CO)]YK[Trp(5-OH)][Aib]VC-X10; lactam 2-7; thioether N-13) was 1.07 nM; that for `CC(C)[C@@H]1NC(=O)[C@H](C(C)C)NC(=O)[C@@H]2CCCCNC(=O)Cn3cc(c4ccccc43)C[C@H](NC(=O)[C@H](CC(N)=O)NC(=O)[C@H](CO)NC1=O)C(=O)N[C@@H](Cc1ccc(C(=O)O)cc1)C(=O)N[C@@H](CCCCN)C(=O)N[C@@H](Cc1c[nH]c3ccc(O)cc13)C(=O)NC1(CCN(CC(=O)O)CC1)C(=O)N[C@@H](C(C)C)C(=O)N[C@H](C(=O)NCCCC[C@H](NC(=O)CC[C@H](NC(=O)CC[C@H](NC(=O)CCCCCCCCCCCCCCC(=O)O)C(=O)O)C(=O)O)C(N)=O)CSCC(=O)N[C@@H](Cc1ccc(O)cc1)C(=O)N2C` [Compound 23] ({CH2CO}-Y[NMeK]VVSN[Trp(1-CH2CO)][Phe(4-COOH)]K[Trp(5-OH)][X7]VC-X3; lactam 2-7; thioether N-13) was 2.29 nM; that for `CC(C)[C@@H]1NC(=O)[C@H](C(C)C)NC(=O)[C@@H]2CCCCNC(=O)Cn3cc(c4ccccc43)C[C@H](NC(=O)[C@H](CC(N)=O)NC(=O)[C@H](CO)NC1=O)C(=O)N[C@@H](Cc1ccc(C(=O)O)cc1)C(=O)N[C@@H](CCCCN)C(=O)N[C@@H](Cc1c[nH]c3ccc(O)cc13)C(=O)NC(C)(C)C(=O)N[C@@H](C(C)C)C(=O)N[C@H](C(=O)NCCCC[C@H](NC(=O)CC[C@H](NC(=O)CC[C@H](NC(=O)CCCCCCCCCCCCCCC(=O)O)C(=O)O)C(=O)O)C(N)=O)CSCC(=O)N[C@@H](Cc1ccc(C(=O)O)cc1)C(=O)N2C` [Compound 11] ({CH2CO}-[Phe(4-COOH)][NMeK]VVSN[Trp(1-CH2CO)][Phe(4-COOH)]K[Trp(5-OH)][Aib]VC-X3; lactam 2-7; thioether N-13) was 2.85 nM.

`CC(C)[C@@H]1NC(=O)[C@H](C(C)C)NC(=O)[C@@H]2CCCCNC(=O)Cn3cc(c4ccccc43)C[C@H](NC(=O)[C@H](CC(N)=O)NC(=O)[C@H](CO)NC1=O)C(=O)N[C@@H](Cc1ccc(C(=O)O)cc1)C(=O)N[C@@H](CCCCN)C(=O)N[C@@H](Cc1c[nH]c3ccc(O)cc13)C(=O)NC(C)(C)C(=O)N[C@@H](C(C)C)C(=O)N[C@H](C(=O)NCCCC[C@H](NC(=O)CC[C@H](NC(=O)CC[C@H](NC(=O)CCCc1ccccc1)C(=O)O)C(=O)O)C(N)=O)CSCC(=O)N[C@@H](Cc1ccc(C(=O)O)cc1)C(=O)N2C` [Compound 10] ({CH2CO}-[Phe(4-COOH)][NMeK]VVSN[Trp(1-CH2CO)][Phe(4-COOH)]K[Trp(5-OH)][Aib]VC-X18; lactam 2-7; thioether N-13): the Kd was 2.03 nM.

The same experiment, now with this note: SPR, hGhR; Table 2 monocyclic peptides; KD calculated from ka and kd; read-out: KD.
Turning to `COc1ccc2[nH]cc(C[C@@H]3NC(=O)[C@H](CC(N)=O)NC(=O)[C@H](CO)NC(=O)[C@H](C(C)C)NC(=O)[C@H](C(C)C)NC(=O)[C@H](CCCCNC(=O)CC[C@H](NC(=O)CCCc4ccc(I)cc4)C(=O)O)N(C)C(=O)[C@H](Cc4ccc(O)cc4)NC(=O)CSC[C@@H](C(=O)NCC(=O)N4CCC[C@H]4C(=O)N[C@H](CO)C(=O)N[C@H](CO)C(=O)N[C@H](CO)C(N)=O)NC(=O)[C@H](C(C)C)NC(=O)C(C)(C)NC(=O)[C@H](Cc4c[nH]c5ccc(O)cc45)NC(=O)[C@H](CCCCN)NC(=O)[C@H](Cc4ccc(C(=O)O)cc4)NC3=O)c2c1` [Compound 54] ({CH2CO}-Y[NMeK]([γGlu-Butanoyl(4-(4-I-phenyl))])VVSN[Trp(5-OMe)][Phe(4-COOH)]K[Trp(5-OH)][Aib]VCGP[dS][dS][dS]-NH2; thioether N-13), the Kd is 2.08 nM.

In the case of `COc1ccc2[nH]cc(C[C@@H]3NC(=O)[C@H](CC(N)=O)NC(=O)[C@H](CO)NC(=O)[C@H](C(C)C)NC(=O)[C@H](C(C)C)NC(=O)[C@H](CCCCNC(=O)CC[C@H](NC(=O)CCCc4ccc(I)cc4)C(=O)O)N(C)C(=O)[C@H](Cc4ccc(O)cc4)NC(=O)CSC[C@@H](C(=O)NCC(=O)N4CCC[C@H]4C(=O)N[C@H](CO)C(=O)N[C@H](CO)C(=O)N[C@H](CO)C(N)=O)NC(=O)[C@H](C(C)C)NC(=O)C4(CCN(CC(=O)O)CC4)NC(=O)[C@H](Cc4c[nH]c5ccc(O)cc45)NC(=O)[C@H](CCCCN)NC(=O)[C@H](Cc4ccc(C(=O)O)cc4)NC3=O)c2c1` [Compound 51] ({CH2CO}-Y[NMeK]([γGlu-Butanoyl(4-(4-I-phenyl))])VVSN[Trp(5-OMe)][Phe(4-COOH)]K[Trp(5-OH)][X7]VCGP[dS][dS][dS]-NH2; thioether N-13), the Kd was 7.57 nM.

For the compound `COc1ccc2[nH]cc(C[C@@H]3NC(=O)[C@H](CC(N)=O)NC(=O)[C@H](CO)NC(=O)[C@H](C(C)C)NC(=O)[C@H](C(C)C)NC(=O)[C@H](CCCCNC(=O)CC[C@H](NC(=O)CC[C@H](NC(=O)CCCc4ccc(I)cc4)C(=O)O)C(=O)O)N(C)C(=O)[C@H](Cc4ccc(C(=O)O)cc4)NC(=O)CSC[C@@H](C(N)=O)NC(=O)[C@H](C(C)C)NC(=O)C(C)(C)NC(=O)[C@H](Cc4c[nH]c5ccc(O)cc45)NC(=O)[C@H](CCCCN)NC(=O)[C@H](Cc4ccc(C(=O)O)cc4)NC3=O)c2c1` [Compound 40] ({CH2CO}-[Phe(4-COOH)][NMeK]([γGlu-γGlu-Butanoyl(4-(4-I-phenyl))])VVSN[Trp(5-OMe)][Phe(4-COOH)]K[Trp(5-OH)][Aib]VC-NH2; thioether N-13), the Kd is 2.96 nM.
